Laboratory results taken from US9416162B2, “Peptides having reduced toxicity that stimulate cholesterol efflux” (The Regents of the University of California, priority 2013, dated 2016).
Non-standard residues stand in square brackets, D forms with d. No end group written: not given here. Cit = NC(=O)NCCC[C@H](N)C(=O)O

Test system: apoE−/− mice
Assay: Atherosclerosis in apoE−/− mice on high-fat western diet, whole aorta Oil-Red O staining
Assay type: in vivo, mouse
Details: IP 30 mg/kg at 48 hour intervals for 6 weeks
Method: Male apoE^−/− mice at 8 weeks of age were fed a high-fat western diet for 14 weeks. Mice were subsequently randomized to either a control group to receive IP injection of vehicle alone or lipid-free peptide (30 mg/kg) at 48 hour intervals for 6 weeks. […] The extent of whole aorta covered with fatty lesions is shown, determined by Oil-Red O staining. Values are means±SD, n=10 mice per group.
CS6253, another synthesis batch of T5237-4, was administered IP at 10 mg/kg for 10 weeks showing again reduction of substantial atherosclerosis in apoE^−/− mice (FIG. 36). Male apoE^−/− mice at 8 weeks of age were fed a high-fat western diet for 14 weeks. Mice were subsequently randomized to either a control group to receive IP injection of vehicle alone or lipid-free CS6253 (10 mg/kg) at 48 hour intervals for 10 weeks while the mice remained on high-fat western diet. The extent of whole aorta covered with fatty lesions is shown, determined by Oil-Red O staining. Values are means±SD, n=10 mice per group.
CS6253 administered SC also reduce substantial atherosclerosis in apoE KO mice. Male apoE−/− mice at 8 weeks of age were fed a high-fat western diet for 14 weeks (FIG. 37). One group was terminated before treatment start as baseline control. Mice were subsequently randomized to one of 3 arms to receive subcutaneous (SC) injection alternate days for 6 weeks; vehicle alone, CS6253 30 mg/kg or CS6253 60 mg/kg. During the first 4 treatment weeks the mice remained on high-fat western diet while during the last two weeks of treatment they were switched to chow diet. The extent of whole aorta covered with fatty lesions is shown, determined by Oil-Red O staining. Values are means±SD, n=10 mice per group.

“T5460-1: citrulline form of LeuATI-5261 possessing a single R3→Citrulline substitution (EV[Cit]SKLEEWLAALRELAEELLARLKS)” was tested, and the “extent of whole aorta covered with fatty lesions” value was “reduced atherosclerosis”.
